# According to patent US20090137626A1, “Pharmaceutical Composition Containing PPARgamma Agonist” (priority 2005, published 2009):
# Structures can show the parent of a compound that is named as a salt.
# Test system: Male Zucker diabetic fatty (ZDF) rats
# Assay: Test Example 1: elimination of blood lactate after intravenous sodium lactate load (blood lactate AUC 0 to 60 minutes)
# Format: in vivo
# Settings: sodium lactate 0.1 g/kg i.v., FIG. 1
# Experimental: The animals of Group B and Group B+A were given free access for 1 week to Compound B mixed in powdered feed (FR-2 Powdered Laboratory Rodent Diet, Funabashi Farm Co., Ltd.) to a concentration of 0.001%. Animals of the control group and Group A were given free access to powdered feed for the same time period.
# All animals were administered sodium lactate at 0.1 g/kg into the caudal vein one hour after oral administration. Blood samples were collected from the caudal vein immediately before and 5, 15, 30, 45 and 60 minutes after administration of sodium lactate, and blood lactate levels were measured using the Lactate Pro LT-1710 (Arkray, Inc.). The areas under the curve for blood lactate concentration (blood lactate AUC) were calculated from blood lactate levels from 0 to 60 minutes measured for each animal. A lower blood lactate AUC value indicates a more rapid elimination of lactate from the blood.
smiles,measurement,setting,value
"COc1ccc2nc(COc3ccc(CC4SC(=O)NC4=O)cc3)n(C)c2c1 (centres unmarked) [Compound B, 5-{4-[(6-methoxy-1-methyl-1H-benzimidazol-2-yl)methoxy]benzyl}thiazolidine-2,4-dione hydrochloride]",blood lactate AUC,"Group B+A: Compound B 0.001% in feed for 1 week, then Compound A 300 mg/kg oral, relative to Group A (P<0.05, t-test)",decreased significantly
same,blood lactate AUC,"Group B: Compound B 0.001% in powdered feed for 1 week, alone, compared with control group (P<0.05, t-test)",decreased significantly
